Results on 16 compounds are retold here after US20240092759A1, “Non-Covalent Inhibitors of the Main Protease of SARS-CoV-2 and Methods of Use” (YALE UNIVERSITY, priority 2021, published 2024).

In this test the target is recombinant SARS-Cov-2 M^pro (Severe acute respiratory syndrome coronavirus 2 (2019-nCoV) (SARS-CoV-2), UniProt P0DTD1). Kind of test: biochemical.
The mark [1] stands for this setting: read-out: IC50 (μM), inhibition of SARS-CoV-2 M^pro, Table 1, 100 nM M^pro, triplicate, perampanel: fluorescence of compound interfered with assay.
Where [2] appears, read: read-out: IC50 (μM), inhibition of SARS-Cov-2 M^pro, Table 4.

Where two headings read alike, the source gives them in different places.

Turning to `N#Cc1ccccc1-c1cc(-c2cccc(Cl)c2)c(=O)n(-c2cccnc2)c1` [Compound 6, 2-(3-(3-Chlorophenyl)-2-oxo-2H-[1,3′-bipyridin]-5-yl)benzonitrile], the 50% inhibitory concentration (IC50) (commonly the point on the concentration scale where inhibition reaches its midpoint) (read-out: IC50) turned out to be 10 µM and the IC50 under setting [1] was 9.99 ± 2.5 µM.

With `O=c1[nH]cc(-c2cc(-c3cccc(Cl)c3)c(=O)n(-c3cccnc3)c2)c(=O)[nH]1` [Compound 8, 5-(3-(3-Chlorophenyl)-2-oxo-2H-[1,3′-bipyridin]-5-yl)pyrimidine-2,4(1H,3H)-dione], the concentration for half-maximal inhibition (IC50) (read-out: IC50) turned out to be 6.4 µM and the IC50 under setting [2] is 6.38 ± 1.21 µM.

As to `N#Cc1ccccc1-c1cc(-c2cccc(Cl)c2)c(=O)n(-c2ccc[n+]([O-])c2)c1` [Compound 10], under setting [2], the half-maximal inhibitory concentration (IC50) is 15.6 ± 2.37 µM.

Take `N#Cc1ccccc1-c1cc(-c2cc(Cl)cc(Cl)c2)c(=O)n(-c2ccc[n+]([O-])c2)c1` [Compound 11]: the half-maximal inhibitory concentration (IC50) under setting [2] was 5 to 20 µM.

As to `N#Cc1ccccc1-c1cc(-c2cc(Cl)cc(OCc3ccccc3)c2)c(=O)n(-c2cccnc2)c1` [Compound 14, 2-(3-(3-(Benzyloxy)-5-chlorophenyl)-2-oxo-2H-[1,3′-bipyridin]-5-yl)benzonitrile], the IC50 came to 0.28 µM (read-out: IC50), 0.28 ± 0.05 µM under setting [1] and 0.28 ± 0.05 µM under setting [2].

Consider `COCCOc1cc(Cl)cc(-c2cc(-c3ccccc3C#N)cn(-c3cccnc3)c2=O)c1` [Compound 16, 2-(3-(3-Chloro-5-(2-methoxyethoxy)phenyl)-2-oxo-2H-[1,3′-bipyridin]-5-yl)benzonitrile], for which the half-inhibitory concentration (IC50) reads like this: under setting [1], 0.47 ± 0.02 µM; under setting [2], 0.47 ± 0.02 µM.

Take `N#Cc1ccccc1-c1cc(-c2cc(Cl)cc(OCCc3ccccc3)c2)c(=O)n(-c2cccnc2)c1` [Compound 17, 2-(3-(3-Chloro-5-phenethoxyphenyl)-2-oxo-2H-[1,3′-bi-pyridin]-5-yl)benzonitrile]: the IC50 reads like this: (read-out: IC50) 0.51 µM; under setting [1], 0.51 ± 0.02 µM; under setting [2], 0.51 ± 0.015 µM.

In the case of `COc1cc(Cl)cc(-c2cc(-c3c[nH]c(=O)[nH]c3=O)cn(-c3cccnc3)c2=O)c1` [Compound 18, 5-(3-(3-Chloro-5-methoxyphenyl)-2-oxo-2H-[1,3′-bipyridin]-5-yl)pyrimidine-2,4(1H,3H)-dione], the half-maximal inhibitory concentration (IC50) by setting is: (read-out: IC50) 1.2 µM; under setting [1], 1.2 ± 0.03 µM; under setting [2], 1.2 ± 0.03 µM.

For the compound `N#Cc1cccc(-c2cc(-c3c[nH]c(=O)[nH]c3=O)cn(-c3cccnc3)c2=O)c1` [Compound 19], the half-maximal inhibitory concentration (IC50) under setting [2] was found to be 10 µM.

In the case of `COc1cc(F)cc(-c2cc(-c3c[nH]c(=O)[nH]c3=O)cn(-c3cccnc3)c2=O)c1` [Compound 20], the concentration for half-maximal inhibition (IC50) under setting [2] is 10 to 100 µM.

In the case of `O=c1[nH]cc(-c2cc(-c3cc(Cl)cc(OCc4ccccc4)c3)c(=O)n(-c3cccnc3)c2)c(=O)[nH]1` [Compound 21], the half-inhibitory concentration (IC50) came to 0.128 µM (read-out: IC50) and 0.128 ± 0.015 µM under setting [2].

Turning to `COc1ccc(-c2cc(-c3cccc(Cl)c3)c(=O)n(-c3cccnc3)c2)c(C#N)n1` [Compound 22], the IC50 under setting [2] lay within 10 to 100 µM.

For the compound `N#Cc1[nH]c(=O)ccc1-c1cc(-c2cccc(Cl)c2)c(=O)n(-c2cccnc2)c1` [Compound 23], the IC50 under setting [2] was 10 µM.

With `CCCCOc1cc(Cl)cc(-c2cc(-c3c[nH]c(=O)[nH]c3=O)cn(-c3cccnc3)c2=O)c1` [Compound 25, 5-(3-(3-Butoxy-5-chlorophenyl)-2-oxo-2H-[1,3′-bipyridin]-5-yl)pyrimidine-2,4(1H,3H)-dione], the half-inhibitory concentration (IC50) by setting is: under setting [1], 0.25 ± 0.09 µM; under setting [2], 0.25 ± 0.089 µM.

Consider `CC(C)CCOc1cc(Cl)cc(-c2cc(-c3c[nH]c(=O)[nH]c3=O)cn(-c3cccnc3)c2=O)c1` [Compound 26, 5-(3-(3-Chloro-5-(isopentyloxy)phenyl)-2-oxo-2H-[1,3′-bipyridin]-5-yl)pyrimidine-2,4(1H, 3H)-dione], for which the concentration for half-maximal inhibition (IC50) is, setting by setting: under setting [1], 0.19 ± 0.03 µM; under setting [2], 0.19 ± 0.026 µM.

Turning to `CC(C)(O)CCOc1cc(Cl)cc(-c2cc(-c3c[nH]c(=O)[nH]c3=O)cn(-c3cccnc3)c2=O)c1` [Compound 28], the IC50 under setting [2] fell in the range of 0.25 to 0.5 µM.
